According to patent EP4029501A1, “COMBINATION OF POLYAROMATIC UREA DERIVATIVES AND GLUCOCORTICOID OR HDAC INHIBITOR FOR THE TREATMENT OF DISEASES OR CONDITIONS ASSOCIATED WITH MUSCLE CELLS AND/OR SATELLITE CELLS” (Anagenesis Biotechnologies, priority 2021, dated 2022):
pEC50: −log10 of the molar value.

Tested on: muscle progenitors derived from DMD hiPSC
Test: Myotube assay: total myotube area per well (alpha-actinin staining)
Assay type: cell-based, human
Details: Homo sapiens, Myotube, 72 h, DMD or WT cell source not given; for Emax: efficacy, MA = normalized Myotube Area, 3 days incubation; for pEC50: myogenic activity, half-maximal generation of myotubes, 10 points dose-response 1.5 nM to 30 µM, 3 days
Method: An in vitro assay for assessing the efficacy of compounds for use in treating, ameliorating, delaying, curing and/or preventing a disease or condition associated with muscle cells and/or satellite cells is described in example 78. Herein, the generation of myotubes and satellite cells after adding a compound to a myotube assay workflow is assessed. Said myotube assay workflow is derived from wild-type or DMD human induced pluripotent stem cells (WT hiPSC or DMD hiPSC). Before the addition of said compound, the assay comprises satellite-like cells, but no significant amount of myotubes.
The efficacy of said compound for use in treating, ameliorating, delaying, curing and/or preventing a disease or condition associated with muscle cells and/or satellite cells is positively correlated with the generation of myotubes (i.e. the increase of the area occupied by myotubes on the assay) and/or satellite cells (i.e. the increase of the number of satellite cells) in the assay after adding said compound. The generation of myotubes by the addition of said compound is expressed as the EC50 value, the concentration of said compound that corresponds with the half-maximal generation of myotubes, and the MA (normalized myotube area) value, the normalized area occupied by generated myotubes on the assay. […] Since muscle cells are formed from myotubes during myogenesis, the generation of myotubes in the assay is a good indicator of the ability of said compound to induce the formation of functional muscle cells in vivo. The number of satellite cells is measured as the percentage of Pax7 positive cells, relative to the total number of cells in the assay, as shown in Figure 3. The percentage of Pax7 is a good indicator of the ability of said compound to induce the formation of satellite cells which are able to play a role in muscle repair and regeneration in vivo.
DMD human induced pluripotent stem cells (hereafter "DMD hiPSC"), generated from the NCRM-1 hiPSC WT cell line by gene editing, or WT human induced pluripotent stem cells (hereafter "WT hiPSC"), being NCRM-1 hiPSC wt cell line, have been differentiated according to Chal et al. 2015, 2016, to produce muscle progenitors (hereafter "hMP"). The hMP population contains satellite-like cells (i.e Pax7-positive cells) and satellite cells' progenies (i.e. Myogenin-positive cells).
Figure 1 provides an example of a Myotube assay workflow. At day 0, hMP are thawed and 3.1 million cells are plated into a T75-flask coated with hESC-qualified Matrigel™ (Corning) in SkGM proliferating medium (PromoCells), supplemented with 5 µM Y-27632 (Tocris Bioscience). On day 2, SkGM proliferating medium is refreshed. On day 4, hMP are harvested and transferred into a 384-well plate coated with collagen type I at a density of 3500 cells/well in a DMEM-based medium, containing 5% of knockout serum replacement (Gibco), 1% PenStrep (Gibco), 1% MEM NEAA (Gibco) and 0.1 mM 2-mercaptoethanol (Gibco) (hereafter "K5 medium") and 5 µM Y-27632. Compounds to be tested are then added in the medium and incubated for 3 days at 37°C. On day 7, cells are fixed and immunostained. For example, myotubes (alpha-actinin staining) and satellite-like (Pax7 staining) cells can be analyzed for total myotube area per well or Pax7-positive cell quantification.
DMD hMP were put in the Myotube assay according to the workflow described in Example 2.1. In particular, compound (i) was added at concentrations ranging from 1.5 nM to 30 µM, starting from day 4. hMP were cultivated for three more days in presence of compound (i), then fixed and analyzed for quantification of total myotube area per well. Duplicates of each condition were averaged.

| SMILES | Emax [%] | pEC50 |
| --- | --- | --- |
| Cc1cc(Oc2ccnc3[nH]c(=O)cnc23)ccc1NC(=O)Nc1cc(C(C)(C)C)nn1-c1ccccc1 [(al), 1-(3-(tert-butyl)-1-phenyl-1 H-pyrazol-5-yl)-3-(2-methyl-4-((3-oxo-3,4-dihydropyrido[2,3-b]pyrazin-8-yl)oxy)phenyl)urea] | ≥ 75 | ≤ 5.30 |
| CC(=O)n1nc(C(C)(C)C)cc1NC(=O)Nc1ccc(Oc2ccnc3[nH]c(=O)cnc23)cc1F [(o), 1-(1-acetyl-3-(tert-butyl)-1 H-pyrazol-5-yl)-3-(2-fluoro-4-((3-oxo-3,4-dihydropyrido[2,3-b]pyrazin-8-yl)oxy)phenyl)urea] | 25 to 50 | ≤ 5.30 |
| CC(C)(C)c1cc(NC(=O)Nc2ccc(Oc3ccnc4[nH]c(=O)cnc34)cc2Cl)n(-c2ccccc2)n1 [(ak), 1-(3-(tert-butyl)-1-phenyl-1H-pyrazol-5-yl)-3-(2-chloro-4-((3-oxo-3,4-dihydropyrido[2,3-b]pyrazin-8-yl)oxy)phenyl)urea] | ≥ 75 | ≤ 5.30 |
| CSc1cc(Oc2ccnc3[nH]c(=O)cnc23)ccc1NC(=O)Nc1nnc(C(C)(C)C)s1 [(z), 1-(5-(tert-butyl)-1,3,4-thiadiazol-2-yl)-3-(2-(methylthio)-4-((3-oxo-3,4-dihydropyrido[2,3-b]pyrazin-8-yl)oxy)phenyl)urea] | ≥ 75 | ≤ 5.30 |
| CCOC(=O)Nc1cc(Oc2ccc(NC(=O)Nc3cc(C(C)(C)C)nn3-c3ccccc3)c(SC)c2)ccn1 [(cv), ethyl (4-(4-(3-(3-(tert-butyl)-1-phenyl-1H-pyrazol-5-yl)ureido)-3-(methylthio)phenoxy)pyridin-2-yl)carbamate] | ≥ 75 | > 6.30 |
| CSc1cc(Oc2ccnc3nccnc23)ccc1NC(=O)Nc1cc(C(C)(C)C)nn1-c1ccccc1 [(bs), 1-(3-(tert-butyl)-1-phenyl-1 H-pyrazol-5-yl)-3-(2-(methylthio)-4-(pyrido[2,3-b]pyrazin-8-yloxy)phenyl)urea] | ≥ 75 | ≤ 5.30 |
| CSc1cc(Oc2ccnc3[nH]c(=O)cnc23)ccc1NC(=O)Nc1ncc(C(C)(C)C)s1 [(ah), 1-(5-(tert-butyl)thiazol-2-yl)-3-(2-(methylthio)-4-((3-oxo-3,4-dihydropyrido[2,3-b]pyrazin-8-yl)oxy)phenyl)urea] | ≥ 75 | ≤ 5.30 |
| CC(C)(C)c1cc(NC(=O)Nc2ccc(Oc3ccnc4[nH]c(=O)cnc34)cn2)n(-c2ccccc2)n1 [(u), 1-(3-(tert-butyl)-1-phenyl-1 H-pyrazol-5-yl)-3-(5-((3-oxo-3,4-dihydropyrido[2,3-b]pyrazin-8-yl)oxy)pyridin-2-yl)urea] | 25 to 50 | 5.30 to 6.00 |
| CC(C)(C)c1cc(NC(=O)Nc2cc(F)c(Oc3ccnc4[nH]c(=O)cnc34)cc2F)n(-c2ccccc2)n1 [(bt), 1-(3-(tert-butyl)-1-phenyl-1 H-pyrazol-5-yl)-3-(2,5-difluoro-4-((3-oxo-3,4-dihydropyrido[2,3-b]pyrazin-8-yl)oxy)phenyl)urea] | ≥ 75 | 6.00 to 6.30 |
| CNCC(=O)Nc1cc(Oc2ccc(NC(=O)Nc3cc(C(C)(C)C)nn3-c3ccccc3)c(SC)c2)ccn1 [(bq), N-(4-(4-(3-(3-(tert-butyl)-1-phenyl-1H-pyrazol-5-yl)ureido)-3-(methylthio)phenoxy)pyridin-2-yl)-2-(methylamino)acetamide] | ≥ 75 |  |
| CSc1cc(Oc2ncnc3[nH]c(=O)cnc23)ccc1NC(=O)Nc1cc(C(C)(C)C)nn1-c1ccccc1 [(bv), 1-(3-(tert-butyl)-1-phenyl-1H-pyrazol-5-yl)-3-(2-(methylthio)-4-((7-oxo-7,8-dihydropteridin-4-yl)oxy)phenyl)urea] | ≥ 75 | ≤ 5.30 |
| CCOC(=O)Nc1cc(Oc2ccc(NC(=O)Nc3ncc(C(C)(C)C)s3)c3ccccc23)ccn1 [(dc), ethyl (4-((4-(3-(5-(tert-butyl)thiazol-2-yl)ureido)naphthalen-1-yl)oxy)pyridin-2-yl)carbamate] | ≥ 75 | > 6.30 |
| CC1(c2cc(NC(=O)Nc3ccc(Oc4ccnc5[nH]c(=O)cnc45)cc3F)n(-c3ccccc3)n2)COC1 [(f), 1-(2-fluoro-4-((3-oxo-3,4-dihydropyrido[2,3-b]pyrazin-8-yl)oxy)phenyl)-3-(3-(3-methyloxetan-3-yl)-1-phenyl-1 H-pyrazol-5-yl)urea] | 50 to 75 | ≤ 5.30 |
| CSc1cc(Oc2ccnc3[nH]c(=O)cnc23)ccc1NC(=O)Nc1cc(C(C)(C)C)nn1-c1ccccn1 [(ar), 1-(3-(tert-butyl)-1-(pyridin-2-yl)-1H-pyrazol-5-yl)-3-(2-(methylthio)-4-((3-oxo-3,4-dihydropyrido[2,3-b]pyrazin-8-yl)oxy)phenyl)urea] | ≥ 75 | ≤ 5.30 |
| CSc1cc(Oc2ccnc3[nH]c(=O)ccc23)ccc1NC(=O)Nc1cc(C(C)(C)C)nn1-c1ccccc1 [(do), 1-(3-(tert-butyl)-1-phenyl-1H-pyrazol-5-yl)-3-(2-(methylthio)-4-((7-oxo-7,8-dihydro-1,8-naphthyridin-4-yl)oxy)phenyl)urea] | ≥ 75 | > 6.30 |
| CCOC(=O)Nc1cc(Oc2ccc(NC(=O)Nc3cc(C(C)(C)C)no3)c(SC)c2)ccn1 [(de), ethyl (4-(4-(3-(3-(tert-butyl)isoxazol-5-yl)ureido)-3-(methylthio)phenoxy)pyridin-2-yl)carbamate] | ≥ 75 | > 6.30 |
| CSc1cc(Oc2ccnc3[nH]c(=O)cnc23)ccc1NC(=O)Nc1cc(C(C)(C)C)nn1-c1ccc(C)c(C)c1 [(cd), 1-(3-(tert-butyl)-1-(3,4-dimethylphenyl)-1H-pyrazol-5-yl)-3-(2-(methylthio)-4-((3-oxo-3,4-dihydropyrido[2,3-b]pyrazin-8-yl)oxy)phenyl)urea] | ≥ 75 | > 6.30 |
| CC(C)Cc1cc(NC(=O)Nc2ccc(Oc3ccnc4[nH]c(=O)cnc34)cc2F)n(-c2ccccc2)n1 [(g), 1-(2-fluoro-4-((3-oxo-3,4-dihydropyrido[2,3-b]pyrazin-8-yl)oxy)phenyl)-3-(3-isobutyl-1-phenyl-1H-pyrazol-5-yl)urea] | ≥ 75 | 6.00 to 6.30 |
| CC(C)(C)c1cc(NC(=O)Nc2ccc(Oc3ccncc3)cc2)n(-c2ccccc2)n1 [(bl), 1-(3-(tert-butyl)-1-phenyl-1 H-pyrazol-5-yl)-3-(4-(pyridin-4-yloxy)phenyl)urea] | 50 to 75 | 6.00 to 6.30 |
| CSc1cc(Oc2ccnc3[nH]c(=O)cnc23)ccc1NC(=O)Nc1nnc(C(C)(C)C)o1 [(cj), 1-(5-(tert-butyl)-1,3,4-oxadiazol-2-yl)-3-(2-(methylthio)-4-((3-oxo-3,4-dihydropyrido[2,3-b]pyrazin-8-yl)oxy)phenyl)urea] | ≥ 75 | ≤ 5.30 |
| CSc1cc(Oc2ccnc3[nH]c(=O)cnc23)ccc1NC(=O)Nc1cc(C(C)(C)C)nn1-c1ccc(CN2CCOCC2)cc1 [(dd), 1-(3-(tert-butyl)-1-(4-(morpholinomethyl)phenyl)-1 H-pyrazol-5-yl)-3-(2-(methylthio)-4-((3-oxo-3,4-dihydropyrido[2,3-b]pyrazin-8-yl)oxy)phenyl)urea] | ≥ 75 | > 6.30 |
| CSc1cc(Oc2ccnc3[nH]c(=O)cnc23)ccc1NC(=O)Nc1cc(C(C)(C)C)nn1C1CCCCC1 [(bn), 1-(3-(tert-butyl)-1-cyclohexyl-1H-pyrazol-5-yl)-3-(2-(methylthio)-4-((3-oxo-3,4-dihydropyrido[2,3-b]pyrazin-8-yl)oxy)phenyl)urea] | 50 to 75 | ≤ 5.30 |
| Cc1cc(NC(=O)Nc2ccc(Oc3ccnc4[nH]c(=O)cnc34)cc2F)n(-c2ccccc2)n1 [(a), 1-(2-fluoro-4-((3-oxo-3,4-dihydropyrido[2,3-b]pyrazin-8-yl)oxy)phenyl)-3-(3-methyl-1-phenyl-1 H-pyrazol-5-yl)urea] | 25 to 50 | 6.00 to 6.30 |
